Experimental data as given in the METLIN SMRT retention time set (Domingo-Almenara et al. 2019).

Assay: gradient 5% acetonitrile 3 min, to 50% in 2 min, to 85% in 15 min, held 3 min, 100 µL/min
Conditions: column: Zorbax Extend-C18 2.1 x 50 mm; eluents: water / acetonitrile, 0.1% formic acid
Summary of the method: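 Mixtures of ~100 pure standards were chromatographed on a Zorbax Extend-C18 column (2.1 × 50 mm, 1.8 μm) at 100 μL/min using water and acetonitrile, each with 0.1% formic acid. Detection used a quadrupole time-of-flight mass spectrometer in positive and negative ionization mode, and data collection spanned 3 months. Retention time was obtained from adduct peaks picked computationally and each checked manually.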

| Structure (SMILES) | RP-LC retention time [s] |
| --- | --- |
| CCC(C)NC(=O)N1CCc2c(c(-c3nc(-c4cccc(F)c4)no3)nn2C)C1 (stereo not given) | 904 |
| CC1=C(c2ccccc2)S(=O)(=O)N=C1N1CCCN(C(=O)c2cccc(F)c2)CC1 | 847 |
| COCCN1C(=O)CCc2cc(NS(=O)(=O)c3ccccc3F)ccc21 | 726 |
| CCc1noc(NC(C)=O)c1-c1ccc(OC)c(S(=O)(=O)Nc2ccccc2OC)c1 | 791 |
| Cc1nnc(N2CCCC(C(=O)NCCc3ccccc3)C2)c2nn(-c3ccccc3)c(C)c12 (stereo not given) | 726 |
| Cc1ccc(CNc2c(-c3ccc(N(C)C)cc3)nc3ncccn23)cc1 | 889 |
| COC(=O)c1cccc(NC(=O)N2C[C@@H]3C[C@H]2C[C@@H]3NC(=O)c2ccccc2)c1 | 736 |
| CCc1ccccc1NC(=O)N1CC(n2cnnc2-c2ccccc2)C1 | 686 |
| CCn1c(=O)c(=O)n(CC(=O)NC(C)Cc2ccco2)c2cccnc21 (stereo not given) | 711 |
| COc1ccc(CNC(=O)c2nc(N3CCOCC3)c3ccccc3n2)cc1 | 662 |
| CCCOC(=O)c1cnc2nc(C)ccc2c1NCc1ccc2c(c1)OCO2 | 734 |
| Cc1nc(C)c(CCNS(=O)(=O)c2cc(C)c(C)cc2C)s1 | 695 |
| CCOC(=O)C1CCCN(Cc2nc3nc(C)cc(N4CCCC4)n3n2)C1 (stereo not given) | 579 |
| CCCc1nc2ccc(NC(=O)NCC)cc2c(=O)n1Cc1ccc(-c2ccccc2)cc1 | 996 |
| CC(C)C(=O)NCCc1csc(C2CCN(C(=O)NC(C)(C)C)CC2)n1 | 681 |
| COc1ccc(-c2nc3cnccn3c2Nc2ccc(C(=O)NCCN3CCOCC3)cc2)cc1 | 584 |
| CN1C(C)(C)CCCC1(C)C | 614 |
| CCOc1cccc(-c2noc(Cn3c(=O)n(-c4cccc(OC)c4)c(=O)c4sccc43)n2)c1 | 970 |
| CCOC(=O)N1CCN(c2cc(C(=O)O)c3cc(NC(=O)CC)ccc3n2)CC1 | 553 |
| CC(C)Nc1nc(=O)[nH]c2ccccc12 | 550 |
| CCCn1nc(CNC(=O)COc2ccccc2)c2ccccc21 | 900 |
| Cc1ccc2c(Nc3ccc(F)c(C)c3)c(-c3nc(C)no3)cnc2n1 | 764 |
| CCCN(C)S(=O)(=O)c1cc(-c2nnc(C(C)C)o2)co1 | 872 |
| COc1ccc(NC(=O)N2CCC(n3c(C(F)(F)F)nc4cccnc43)CC2)cc1 | 898 |
| O=C(CSc1ncn[nH]1)Nc1ccc2c(c1)OCCO2 | 591 |
| CC(C)N1CCN(C(=O)c2csc(N3CCN(c4ccc(Cl)cc4)CC3)n2)CC1 | 706 |
| O=c1c(NCCc2ccccc2)nc2ccncc2n1Cc1ccccc1 | 742 |

| Structure (SMILES) | RP-LC retention time [s] |
| --- | --- |
| COc1cccc(-c2cn3ccn(-c4ccc(OC)c(Cl)c4)c(=O)c3n2)c1 | 850 |
| Nc1ccc(Br)cc1Br | 1000 |
| COCCCNCc1ccc(-c2ccc(C(C)O)cc2)o1 (stereo not given) | 600 |
| O=C(Nc1ccc(-c2nnc3n2CCCC3)cc1)c1ccc2ccccc2n1 | 773 |
| Cn1ccc2c(cc(C(=O)NCc3cccc(Cl)c3)n2C)c1=O | 724 |
| COc1ccccc1N1CCN(CC2CN3C(=O)N(C)c4ccccc4C3=N2)CC1 (stereo not given) | 662 |
| Cc1cc2nn(CC(=O)Nc3ccc(Br)cc3F)c(=O)n2c(-c2ccc(F)cc2)n1 | 952 |
| CCCC1OC(c2cc3c(cc2Cl)OCO3)OCC1CC (stereo not given) | 1070 |
| O=C(CSc1ncccn1)N1CCC(Cc2ccccc2)CC1 | 820 |
| COc1ccc(OC)c(Nc2c(-c3ccc(N(C)C)cc3)nc3cnccn23)c1 | 796 |
| NC(=O)c1ccc(I)c([N+](=O)[O-])c1 | 745 |
| COc1cc(-c2nnc(COc3ccc(Cl)cc3Cl)o2)cc(OC)c1OC | 994 |
| O=C(Cn1c(=O)c(CCC(=O)NC2CC2)nc2ccccc21)Nc1cccc(Br)c1 | 781 |
| O=C(CCc1cc(Cl)no1)NCCc1noc(C2CC2)n1 | 693 |
| Cc1cc2c(=O)n(CC(=O)NCc3ccc(F)cc3Cl)ccc2s1 | 814 |
| CCN(CC)c1ccc(NC(=O)CN2C(=O)C(C)(C)c3ccccc32)c(C)c1 | 630 |
| Cc1ccc(-c2nnc(-c3cccc(S(=O)(=O)NC(C(=O)O)C(C)C)c3)o2)cc1 (stereo not given) | 874 |
| Cc1ccn(S(=O)(=O)c2ccc(C(C)(C)C)cc2)n1 | 983 |
| CCc1nn2c(CNC(=O)c3ccc(OC)cc3)c(-c3ccccc3)nc2s1 | 881 |
| Cc1cc(N2CCN(C(=O)Cc3ccccc3Br)CC2)nc2nnc(C)n12 | 623 |
| CCN1CCN(CC(=O)N2N=C(c3cccs3)CC2c2ccc(F)cc2)C(=O)C1=O (stereo not given) | 703 |
| O=C(NCC1CCOCC1)Nc1cccc(Br)c1 | 749 |
| CCOc1ccccc1CNC(=O)CN1CCN(Cc2cccc(Cl)c2)C1=O | 910 |
| CCc1ccc(NC2CC(=O)N(c3ccc(OC)cc3OC)C2=O)cc1 (stereo not given) | 887 |
| COCCCNC(=O)c1nc(Nc2ccccc2)c2ccccc2n1 | 664 |
| Cc1cc(N(C)C)nc(N2CCN(C(=O)c3ccc(Br)cc3)CC2)n1 | 658 |
| O=c1c2cc(-c3ccc(F)cc3)nn2ccn1Cc1noc(CN2CCc3ccccc32)n1 | 1050 |

Next, values leading:

| RP-LC retention time [s] | Structure (SMILES) |
| --- | --- |
| 878 | CCCC1CCC(C(=O)Nc2ccc3nc(N4CCN(c5ncccn5)CC4)cc(C)c3c2)CC1 (stereo not given) |
| 695 | CCOC(=O)NCCS(=O)(=O)N1CCN(c2ccc(OC)cc2)CC1 |
| 1070 | CC(C)N1C(=O)C(C)(C(=O)Nc2ccc(F)c(Cl)c2)Oc2cccnc21 (stereo not given) |
| 758 | Cn1c(=O)c2nc(S(=O)(=O)CCC(=O)Nc3ccc(F)cc3Cl)n(C)c2n(C)c1=O |
| 657 | Cn1c(=O)n(CC(N)=O)c(=O)c2c1nc1n2CCCN1C1CCCCC1 |
| 1120 | CCN1C(=O)C2(CCN(S(=O)(=O)c3ccc(C)c(F)c3)CC2)c2ccccc21 |
| 716 | CCN1CCCn2cc(S(=O)(=O)Nc3cccc(F)c3)cc2C1=O |
| 1040 | COC1C(=O)N(c2cccc(F)c2)C12CCN(S(=O)(=O)Cc1ccccc1F)CC2 (stereo not given) |
| 863 | Cc1cc(Cl)ccc1N1C(=O)CN(S(C)(=O)=O)CC1(C)C(=O)NCc1ccccc1 (stereo not given) |
| 585 | CC1CCCCN1CCNC(=O)CCC(=O)N1CCc2c(c(C(=O)N3CCCCC3)nn2C)C1 (stereo not given) |
| 1030 | Cc1nc(-c2csc(S(=O)(=O)NCc3ccccc3Cl)c2)sc1C |
| 875 | Cc1ccc(N2CCC(NC(=O)Nc3ccccc3C)C2=O)cc1C (stereo not given) |
| 731 | CC(=O)Nc1cccc(N2CC(C(=O)NC3CCCCCCC3)CC2=O)c1 (stereo not given) |
| 1060 | CC1CCN(S(=O)(=O)c2ccc(-c3nnc(C(=O)NCCc4cccs4)o3)cc2)CC1 |
| 816 | Cc1cc(C2CCCN2C(=O)c2c(-c3ccccc3Cl)noc2C)on1 (stereo not given) |
| 852 | CCc1cccc(NS(=O)(=O)c2cc3n(c2)CCN(CC(C)C)C3=O)c1 |
| 666 | CCN(CC)C(=O)c1ccc2c(c1)N(CC(=O)N1CCN(c3ncccn3)CC1)C(=O)CO2 |
| 741 | Cc1ccc(NC(=O)CN2CCc3[nH]c4c(C)c(Cl)ccc4c(=O)c3C2)c(Cl)c1 |

| RP-LC retention time [s] | Structure (SMILES) |
| --- | --- |
| 596 | O=C(NCCN1CCCCCC1)C(=O)Nc1ccc2nc3n(c(=O)c2c1)CCCCC3 |
| 704 | Cc1oc(-c2[nH]ncc2C(=O)N2CCCC2)cc1S(=O)(=O)Nc1cccc(F)c1 |
| 842 | Cc1cc(NC(=O)CSc2cc(N3CCCC3)ncn2)ccc1Br |
| 721 | COc1cccc(CNC(=O)C2CCCN2S(=O)(=O)c2cc3c(cc2C)NC(=O)CO3)c1 (stereo not given) |
| 986 | COc1ccc(C)cc1NC(=O)C(C)C1CCN(C(=O)Nc2ccc(Cl)cc2)CC1 (stereo not given) |
| 686 | Cc1ccc(S(=O)(=O)N2CCC(CN3CCCCCC3)CC2)cc1F |
| 1000 | Cc1ccc(C)c2sc(OC3CCN(C(=O)c4ccc(S(C)(=O)=O)cc4)CC3)nc12 |
| 641 | O=C(CCN1C(=O)c2cccc3cccc(c23)C1=O)NC1CCS(=O)(=O)C1 (stereo not given) |
| 971 | O=C(CN1C(=O)C(C(=O)N2CCCC2)Sc2ccccc21)NCc1ccc(Br)cc1 (stereo not given) |
| 1040 | Cc1ccc(S(=O)(=O)N2CCc3c(c(-c4nnc(-c5ccccc5F)o4)nn3C)C2)cc1Cl |
| 892 | Cc1c(Cl)cccc1N1C(=O)CN(S(C)(=O)=O)CC1(C)C(=O)NC1CCCCC1 (stereo not given) |
| 764 | COC(=O)c1c(NCc2cccs2)c2cccc(Cl)c2[nH]c1=O |
| 607 | Cc1ccc(N2C(=O)CC(N3CCC(C(N)=O)CC3)C2=O)cc1C (stereo not given) |
| 1010 | Cc1ccc(CNC(=O)C2(C)CCCN(C(=O)Nc3ccc(Cl)cc3)C2)cc1 (stereo not given) |
| 803 | CN1C(=O)C2(CCN(C(=O)Cc3cccc(F)c3)C2)c2ccccc21 (stereo not given) |
| 967 | CCCn1c(=O)sc2cc(S(=O)(=O)N3CCC(C(=O)NC4CCCCC4)CC3)ccc21 |
| 629 | CCN(CC)C(=O)c1cc2c(s1)CCC(C(=O)N1CCN(c3ccccn3)CC1)C2 (stereo not given) |
| 798 | CC(=O)c1cccc(C(=O)NC2(c3nc(C)no3)CCCCC2)c1 |
